Measured values from patent publication US20020137929A1, “1 - (3-heterocyclylphenyl) isothiourea, -isourea, -guanidine and -amidine herbicidal agents” (Intellectual Property Department, BASF Aktiengesellschaft, priority 1998, published 2002).

How the values were obtained:
AMBEL (Ragweed, Common) [1] = test: Preemergence herbicidal evaluation; assay type: in vivo, Ambrosia artemisifolia; details: rated 4-5 weeks after treatment
In short: (§1)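 Each species is sown separately in potting soil over roughly an inch of soil before any emergence. The soil surface then receives an aqueous acetone spray delivering about 0.0156 to 0.500 kg/ha of compound. After four to five weeks, injury is scored from 0 to 9 relative to a control.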

ECHCG (Barnyardgrass) = test: Postemergence herbicidal evaluation; assay type: in vivo, Echinochloa crus-galli; details: postemergence
In short: (§2)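 Young plants, roughly two weeks from seeding, receive the active ingredient as a sprayed dispersion (acetone/water 50/50, 0.5% TWEEN 20) at 40 psi. Doses span about 0.0156 to 0.500 kg/ha. A visual score from 0 to 9 compares treated with control plants four to five weeks on.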

[2] = system: CHEAL (Lambsquarters, Common); test: Preemergence herbicidal evaluation; assay type: in vivo, Chenopodium album; details: rated 4-5 weeks after treatment
In short: as §1

AMBEL (Ragweed, Common) [3] = test: Postemergence herbicidal evaluation; assay type: in vivo, Ambrosia artemisifolia; details: postemergence
In short: as §2

ZEAMX (Corn, Field) = test: Postemergence herbicidal evaluation; assay type: in vivo, Zea mays; details: postemergence
In short: as §2

ORYSAT (Rice, Tebonnet) = test: Postemergence herbicidal evaluation; assay type: in vivo, Oryza sativa, (L.) Tebonnet; details: postemergence
In short: as §2

GALAP (Galium) = test: Preemergence herbicidal evaluation; assay type: in vivo, Galium aparine; details: rated 4-5 weeks after treatment
In short: as §1

CASOB (Sicklepod) = test: Preemergence herbicidal evaluation; assay type: in vivo, Cassia obtusifolia; details: rated 4-5 weeks after treatment
In short: as §1

CYPSE (Flatsedge) = test: Preemergence weed control under flooded paddy conditions; assay type: in vivo, Cyperus serotinus; details: rated 3-4 weeks after treatment
In short: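 First, seeds or propagules go into the top 0.5 cm of silt loam; next, water is held 1.5 to 3 cm over the soil; then compound (50/50 acetone/water) is pipetted into it at about 0.0313 to 0.500 kg/ha; finally plants are rated visually 0-9 after three to four weeks.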

ABUTH (Velvetleaf) = test: Postemergence herbicidal evaluation; assay type: in vivo, Abutilon theophrasti; details: postemergence
In short: as §2

[4] = system: GLXMAW (Soybean, Williams); test: Postemergence herbicidal evaluation; assay type: in vivo, Glycine max, (L.) Merr. cv Williams; details: postemergence
In short: as §2

[5] = system: CHEAL (Lambsquarters, Common); test: Postemergence herbicidal evaluation; assay type: in vivo, Chenopodium album; details: postemergence
In short: as §2

[6] = rate 0.0156 kg/ha, rating scale 0-9
[7] = rate 0.0313 kg/ha, rating scale 0-9
[8] = rate 0.0625 kg/ha, rating scale 0-9
[9] = rate 0.1250 kg/ha, rating scale 0-9
[10] = rate 0.2500 kg/ha, rating scale 0-9

CCOC(=O)CN1C(=O)C(OC)SC1=Nc1cc(-n2c(=O)cc(C(F)(F)F)n(C)c2=O)c(F)cc1Cl (centres unmarked) [Compound 160, Ethyl 2-{{2-chloro-5-[3,6-dihydro-3-methyl-2,6-dioxo-4-(trifluoromethyl)-1(2H)-pyrimidinyl]-4-fluorophenyl}imino}-5-methoxy-4-oxo-3-thiazolidineacetate]
Preemergence herbicidal rating AMBEL (AMBEL (Ragweed, Common) [1]; 0.0156 kg/ha): 7.0
Preemergence herbicidal rating AMBEL (AMBEL (Ragweed, Common) [1]; 0.0313 kg/ha): 6.0
Preemergence herbicidal rating AMBEL (AMBEL (Ragweed, Common) [1]; 0.0625 kg/ha): 9.0
Preemergence herbicidal rating AMBEL (AMBEL (Ragweed, Common) [1]; 0.1250 kg/ha): 9.0
Preemergence herbicidal rating AMBEL (AMBEL (Ragweed, Common) [1]; 0.2500 kg/ha): 9.0
Preemergence herbicidal rating AMBEL (AMBEL (Ragweed, Common) [1]; 0.5000 kg/ha): 9.0
Herbicidal rating ECHCG (ECHCG (Barnyardgrass); rate 0.0156 kg/ha): 3.0
Herbicidal rating ECHCG (ECHCG (Barnyardgrass); rate 0.0313 kg/ha): 5.0
Herbicidal rating ECHCG (ECHCG (Barnyardgrass); rate 0.0625 kg/ha): 4.0
Herbicidal rating ECHCG (ECHCG (Barnyardgrass); rate 0.1250 kg/ha): 7.0
Preemergence herbicidal rating CHEAL ([2]; 0.0156 kg/ha): 2.0
Preemergence herbicidal rating CHEAL ([2]; 0.0313 kg/ha): 9.0
Preemergence herbicidal rating CHEAL ([2]; 0.0625 kg/ha): 9.0
Preemergence herbicidal rating CHEAL ([2]; 0.1250 kg/ha): 9.0
Preemergence herbicidal rating CHEAL ([2]; 0.2500 kg/ha): 9.0
Preemergence herbicidal rating CHEAL ([2]; 0.5000 kg/ha): 9.0
Herbicidal rating AMBEL (AMBEL (Ragweed, Common) [3]; rate 0.0156 kg/ha): 7.0
Herbicidal rating AMBEL (AMBEL (Ragweed, Common) [3]; rate 0.0313 kg/ha): 7.0
Herbicidal rating AMBEL (AMBEL (Ragweed, Common) [3]; rate 0.0625 kg/ha): 9.0
Herbicidal rating AMBEL (AMBEL (Ragweed, Common) [3]; rate 0.1250 kg/ha): 9.0
Herbicidal rating ZEAMX (ZEAMX (Corn, Field); rate 0.0156 kg/ha): 6.5
Herbicidal rating ZEAMX (ZEAMX (Corn, Field); rate 0.0313 kg/ha): 7.0
Herbicidal rating ZEAMX (ZEAMX (Corn, Field); rate 0.0625 kg/ha): 7.0
Herbicidal rating ZEAMX (ZEAMX (Corn, Field); rate 0.1250 kg/ha): 7.5
Herbicidal rating ORYSAT (ORYSAT (Rice, Tebonnet); rate 0.0156 kg/ha): 2.0
Herbicidal rating ORYSAT (ORYSAT (Rice, Tebonnet); rate 0.0313 kg/ha): 3.5
Herbicidal rating ORYSAT (ORYSAT (Rice, Tebonnet); rate 0.0625 kg/ha): 4.5
Herbicidal rating ORYSAT (ORYSAT (Rice, Tebonnet); rate 0.1250 kg/ha): 4.5
Preemergence herbicidal rating GALAP (GALAP (Galium); 0.0156 kg/ha): 0.0
Preemergence herbicidal rating GALAP (GALAP (Galium); 0.0313 kg/ha): 0.0
Preemergence herbicidal rating GALAP (GALAP (Galium); 0.0625 kg/ha): 0.0
Preemergence herbicidal rating GALAP (GALAP (Galium); 0.1250 kg/ha): 0.0
Preemergence herbicidal rating GALAP (GALAP (Galium); 0.2500 kg/ha): 7.0
Preemergence herbicidal rating GALAP (GALAP (Galium); 0.5000 kg/ha): 7.0
Preemergence herbicidal rating CASOB (CASOB (Sicklepod); 0.0156 kg/ha): 0.0
Preemergence herbicidal rating CASOB (CASOB (Sicklepod); 0.0313 kg/ha): 0.0
Preemergence herbicidal rating CASOB (CASOB (Sicklepod); 0.0625 kg/ha): 2.0
Preemergence herbicidal rating CASOB (CASOB (Sicklepod); 0.1250 kg/ha): 1.0
Preemergence herbicidal rating CASOB (CASOB (Sicklepod); 0.2500 kg/ha): 7.0
Preemergence herbicidal rating CASOB (CASOB (Sicklepod); 0.5000 kg/ha): 9.0
herbicidal effect rating, CYPSE (CYPSE (Flatsedge); 0.0313 kg/ha): 3.0
herbicidal effect rating, CYPSE (CYPSE (Flatsedge); 0.0625 kg/ha): 3.0
herbicidal effect rating, CYPSE (CYPSE (Flatsedge); 0.1250 kg/ha): 3.0
herbicidal effect rating, CYPSE (CYPSE (Flatsedge); 0.2500 kg/ha): 3.0
Herbicidal rating ABUTH (ABUTH (Velvetleaf); rate 0.0156 kg/ha): 9.0
Herbicidal rating ABUTH (ABUTH (Velvetleaf); rate 0.0313 kg/ha): 9.0
Herbicidal rating ABUTH (ABUTH (Velvetleaf); rate 0.0625 kg/ha): 9.0
Herbicidal rating ABUTH (ABUTH (Velvetleaf); rate 0.1250 kg/ha): 9.0
Herbicidal rating GLXMAW ([4]; rate 0.0156 kg/ha): 5.0
Herbicidal rating GLXMAW ([4]; rate 0.0313 kg/ha): 6.0
Herbicidal rating GLXMAW ([4]; rate 0.0625 kg/ha): 7.0
Herbicidal rating GLXMAW ([4]; rate 0.1250 kg/ha): 7.0
Herbicidal rating CHEAL ([5]; rate 0.0156 kg/ha): 2.0
Herbicidal rating CHEAL ([5]; rate 0.0313 kg/ha): 6.0
Herbicidal rating CHEAL ([5]; rate 0.0625 kg/ha): 9.0
Herbicidal rating CHEAL ([5]; rate 0.1250 kg/ha): 9.0

Cc1cc(C)cc(CN2C(=O)CSC2=Nc2cc(-n3c(=O)cc(C(F)(F)F)n(C)c3=O)c(F)cc2Cl)c1 [Compound 146, 3-{4-Chloro-5-{[3-(3,5-dimethylbenzyl)-4-oxo-2-thiazolidinylidene]amino}-2-fluorophenyl}-1-methyl-6-(trifluoromethyl)-2,4(1H,3H)-pyrimidinedione]
Preemergence herbicidal rating AMBEL (AMBEL (Ragweed, Common) [1]; [6]): 0.0
Preemergence herbicidal rating AMBEL (AMBEL (Ragweed, Common) [1]; [7]): 0.0
Preemergence herbicidal rating AMBEL (AMBEL (Ragweed, Common) [1]; [8]): 0.0
Preemergence herbicidal rating AMBEL (AMBEL (Ragweed, Common) [1]; [9]): 0.0
Preemergence herbicidal rating AMBEL (AMBEL (Ragweed, Common) [1]; [10]): 3.0
Herbicidal rating ECHCG (ECHCG (Barnyardgrass); rate 0.0156 kg/ha): 1.0
Herbicidal rating ECHCG (ECHCG (Barnyardgrass); rate 0.0313 kg/ha): 1.0
Herbicidal rating ECHCG (ECHCG (Barnyardgrass); rate 0.0625 kg/ha): 2.0
Preemergence herbicidal rating CHEAL [2, 6]: 0.0
Preemergence herbicidal rating CHEAL [2, 7]: 9.0
Preemergence herbicidal rating CHEAL [2, 8]: 9.0
Preemergence herbicidal rating CHEAL [2, 9]: 9.0
Preemergence herbicidal rating CHEAL [2, 10]: 9.0
Herbicidal rating AMBEL (AMBEL (Ragweed, Common) [3]; rate 0.0156 kg/ha): 9.0
Herbicidal rating AMBEL (AMBEL (Ragweed, Common) [3]; rate 0.0313 kg/ha): 9.0
Herbicidal rating AMBEL (AMBEL (Ragweed, Common) [3]; rate 0.0625 kg/ha): 9.0
Herbicidal rating ZEAMX (ZEAMX (Corn, Field); rate 0.0156 kg/ha): 4.0
Herbicidal rating ZEAMX (ZEAMX (Corn, Field); rate 0.0313 kg/ha): 4.5
Herbicidal rating ZEAMX (ZEAMX (Corn, Field); rate 0.0625 kg/ha): 4.5
Herbicidal rating ORYSAT (ORYSAT (Rice, Tebonnet); rate 0.0156 kg/ha): 2.0
Herbicidal rating ORYSAT (ORYSAT (Rice, Tebonnet); rate 0.0313 kg/ha): 3.5
Herbicidal rating ORYSAT (ORYSAT (Rice, Tebonnet); rate 0.0625 kg/ha): 4.0
Preemergence herbicidal rating GALAP (GALAP (Galium); [6]): 1.0
Preemergence herbicidal rating GALAP (GALAP (Galium); [7]): 0.0
Preemergence herbicidal rating GALAP (GALAP (Galium); [8]): 0.0
Preemergence herbicidal rating GALAP (GALAP (Galium); [9]): 2.0
Preemergence herbicidal rating GALAP (GALAP (Galium); [10]): 2.0
Preemergence herbicidal rating CASOB (CASOB (Sicklepod); [6]): 0.0
Preemergence herbicidal rating CASOB (CASOB (Sicklepod); [7]): 0.0
Preemergence herbicidal rating CASOB (CASOB (Sicklepod); [8]): 0.0
Preemergence herbicidal rating CASOB (CASOB (Sicklepod); [9]): 1.0
Preemergence herbicidal rating CASOB (CASOB (Sicklepod); [10]): 1.0
herbicidal effect rating, CYPSE (CYPSE (Flatsedge); 0.0313 kg/ha): 0.0
herbicidal effect rating, CYPSE (CYPSE (Flatsedge); 0.0625 kg/ha): 0.0
herbicidal effect rating, CYPSE (CYPSE (Flatsedge); 0.1250 kg/ha): 0.0
herbicidal effect rating, CYPSE (CYPSE (Flatsedge); 0.2500 kg/ha): 0.0
Herbicidal rating ABUTH (ABUTH (Velvetleaf); rate 0.0156 kg/ha): 9.0
Herbicidal rating ABUTH (ABUTH (Velvetleaf); rate 0.0313 kg/ha): 9.0
Herbicidal rating ABUTH (ABUTH (Velvetleaf); rate 0.0625 kg/ha): 9.0
Herbicidal rating GLXMAW ([4]; rate 0.0156 kg/ha): 5.0
Herbicidal rating GLXMAW ([4]; rate 0.0313 kg/ha): 6.0
Herbicidal rating GLXMAW ([4]; rate 0.0625 kg/ha): 6.0
Herbicidal rating CHEAL ([5]; rate 0.0156 kg/ha): 9.0
Herbicidal rating CHEAL ([5]; rate 0.0313 kg/ha): 9.0
Herbicidal rating CHEAL ([5]; rate 0.0625 kg/ha): 9.0
